{
  "source": "patent US11981686B2",
  "about": "“Urea compound having substituent” (DAIICHI SANKYO COMPANY, LIMITED, priority 2019, dated 2024)",
  "data": [
    {"biological_target": "SIRT6 enzyme (Homo sapiens, UniProt Q8N6T7)", "sequence (Q8N6T7 whole entry, species assumed)": "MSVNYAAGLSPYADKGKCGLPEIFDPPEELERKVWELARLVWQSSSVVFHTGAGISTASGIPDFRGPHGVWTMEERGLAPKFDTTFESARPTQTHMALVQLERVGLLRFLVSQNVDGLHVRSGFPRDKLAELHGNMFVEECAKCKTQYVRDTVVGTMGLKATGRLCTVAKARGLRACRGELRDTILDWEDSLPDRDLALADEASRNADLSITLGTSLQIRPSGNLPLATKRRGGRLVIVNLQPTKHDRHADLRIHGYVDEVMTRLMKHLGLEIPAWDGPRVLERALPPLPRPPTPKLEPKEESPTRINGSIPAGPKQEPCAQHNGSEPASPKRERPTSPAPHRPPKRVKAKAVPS", "assay": "Measurement of deacetylation activity (SIRT6, AlphaLISA, H3K9(Ac) peptide)", "type": "biochemical", "conditions": "SIRT6 25 ng/mL, H3K9(Ac) biotin peptide 2 nM, NAD 10 μM, room temperature 30 minutes, duplicate", "procedure,_shortened": "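Activation read as EC150, the concentration giving 150% activity relative to enzyme/no-enzyme DMSO controls, via variable-slope fit. Deacetylation of 2 nM biotinylated H3K9(Ac) peptide with 10 μM NAD+ by 25 ng/mL SIRT6 ran 30 min at room temperature, pH 8.0, then AlphaLISA detection of unmodified H3K9.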", "units": {"EC150 (the concentration of the compound showing a relative enzyme activity of 150%)": "μm"}, "values": [
      {"smiles": "CC(C)(O)CNC(=O)Nc1nc2c(s1)CN(c1nc(C3(C(F)(F)F)CC3)no1)CC2", "note": "[Example 92, N-(2-hydroxy-2-methylpropyl)-N′-(5-{3-[1-(trifluoromethyl)cyclopropyl]-1,2,4-oxadiazol-5-yl}-4,5,6,7-tetrahydro[1,3]thiazolo[5,4-c]pyridin-2-yl)urea]", "EC150 (the concentration of the compound showing a relative enzyme activity of 150%)": 3.5},
      {"smiles": "CC(C)(O)CNC(=O)Nc1nc2c(s1)[C@@H]1COC[C@H](C2)N1c1nc2cc(C(F)(F)F)ccc2o1", "note": "[Example 144, N-(2-hydroxy-2-methylpropyl)-N′-{(4S,8S)-10-[5-(trifluoromethyl)-1,3-benzoxazol-2-yl]-4,7,8,9-tetrahydro-5H-4,8-epiminooxocino[5,4-d][1,3]thiazol-2-yl}urea]", "EC150 (the concentration of the compound showing a relative enzyme activity of 150%)": 0.61},
      {"smiles": "CNC(=O)Nc1nc2c(s1)C1CN(C(=O)OC)CC(C2)N1c1nc(C23CC(C(F)F)(C2)C3)no1", "note": "(stereo not shown) [Example 135, Methyl 10-{3-[3-(difluoromethyl)bicyclo[1.1.1]pentan-1-yl]-1,2,4-oxadiazol-5-yl}-2-[(methylcarbamoyl)amino]-4,7,8,9-tetrahydro-4,8-epimino[1,3]thiazolo[5,4-d]azocine-6(5H)-carboxylate]", "EC150 (the concentration of the compound showing a relative enzyme activity of 150%)": 2.1},
      {"smiles": "CNC(=O)Nc1nc2c(s1)[C@H]1CN(C(=O)OC)C[C@@H](C2)N1c1nc(-c2ccc(F)cc2)no1", "note": "(relative stereo) [Example 24, (−)-Methyl (4R*,8R*)-10-[3-(4-fluorophenyl)-1,2,4-oxadiazol-5-yl]-2-[(methylcarbamoyl)amino]-4,7,8,9-tetrahydro-4,8-epimino[1,3]thiazolo[5,4-d]azocine-6(5H)-carboxylate]", "EC150 (the concentration of the compound showing a relative enzyme activity of 150%)": 0.19},
      {"smiles": "COC(=O)N1C[C@H]2Cc3nc(NC(=O)NCC(C)(C)O)sc3[C@@H](C1)N2c1nc(C2(C(F)(F)F)CC2)no1", "note": "(relative stereo) [Example 33, Methyl (4R*,8R*)-2-{[(2-hydroxy-2-methylpropyl)carbamoyl]amino}-10-{3-[1-(trifluoromethyl)cyclopropyl]-1,2,4-oxadiazol-5-yl}-4,7,8,9-tetrahydro-4,8-epimino[1,3]thiazolo[5,4-d]azocine-6(5H)-carboxylate]", "EC150 (the concentration of the compound showing a relative enzyme activity of 150%)": 1.6},
      {"smiles": "CNC(=O)Nc1nc2c(s1)C1CN(C(=O)OC(C)C)CC(C2)N1c1nc(-c2ccc(F)cc2)no1", "note": "(stereo not shown) [Example 32, Propan-2-yl 10-[3-(4-fluorophenyl)-1,2,4-oxadiazol-5-yl]-2-[(methylcarbamoyl)amino]-4,7,8,9-tetrahydro-4,8-epimino[1,3]thiazolo[5,4-d]azocine-6(5H)-carboxylate]", "EC150 (the concentration of the compound showing a relative enzyme activity of 150%)": 0.27},
      {"smiles": "COc1cccc(-c2cnc(N3[C@@H]4COC[C@H]3c3sc(NC(=O)N[C@H]5CC[C@H](O)CC5)nc3C4)o2)n1", "note": "[Example 188, N-[(1r,4r)-4-hydroxycyclohexyl]-N′-{(4S,8S)-10-[5-(6-methoxypyridin-2-yl)-1,3-oxazol-2-yl]-4,7,8,9-tetrahydro-5H-4,8-epiminooxocino[5,4-d][1,3]thiazol-2-yl}urea]", "EC150 (the concentration of the compound showing a relative enzyme activity of 150%)": 0.4},
      {"smiles": "CC(C)(O)CNC(=O)Nc1nc2c(s1)CN(c1nc(C3CCC(F)(F)C3)no1)CC2", "note": "(stereo not shown) [Example 94, N-{5-[3-(3,3-difluorocyclopentyl)-1,2,4-oxadiazol-5-yl]-4,5,6,7-tetrahydro[1,3]thiazolo[5,4-c]pyridin-2-yl}-N′-(2-hydroxy-2-methylpropyl)urea]", "EC150 (the concentration of the compound showing a relative enzyme activity of 150%)": 1.6},
      {"smiles": "COc1cc(-c2noc(N3CCc4nc(NC(=O)NCc5nccn5C)sc4C3)n2)ccc1F", "note": "[Example 100, N-{5-[3-(4-fluoro-3-methoxyphenyl)-1,2,4-oxadiazol-5-yl]-4,5,6,7-tetrahydro[1,3]thiazolo[5,4-c]pyridin-2-yl}-N′-[(1-methyl-1H-imidazol-2-yl)methyl]urea]", "EC150 (the concentration of the compound showing a relative enzyme activity of 150%)": 2.6},
      {"smiles": "CNC(=O)Nc1nc2c(s1)[C@@H]1CC[C@H](C2)N1c1nc(-c2ccc(F)cc2)no1", "note": "(relative stereo) [Example 10, N-{(5R*,8S*)-9-[3-(4-fluorophenyl)-1,2,4-oxadiazol-5-yl]-5,6,7,8-tetrahydro-4H-5,8-epiminocyclohepta[d][1,3]thiazol-2-yl}-N′-methylurea]", "EC150 (the concentration of the compound showing a relative enzyme activity of 150%)": 1.0},
      {"smiles": "O=C(NCc1ccnc(O)c1)Nc1nc2c(s1)[C@@H]1COC[C@H](C2)N1c1ncc(-c2cccc(OC(F)F)n2)o1", "note": "[Example 177, N-[(4S,8S)-10-{5-[6-(difluoromethoxy)pyridin-2-yl]-1,3-oxazol-2-yl}-4,7,8,9-tetrahydro-5H-4,8-epiminooxocino[5,4-d][1,3]thiazol-2-yl]-N′-[(2-hydroxypyridin-4-yl)methyl]urea]", "EC150 (the concentration of the compound showing a relative enzyme activity of 150%)": 0.28},
      {"smiles": "CCOc1cccc(-c2nnc(N3[C@@H]4COC[C@H]3c3sc(NC(=O)NC)nc3C4)o2)c1", "note": "[Example 121, N-{(4S,8S)-10-[5-(3-ethoxyphenyl)-1,3,4-oxadiazol-2-yl]-4,7,8,9-tetrahydro-5H-4,8-epiminooxocino[5,4-d][1,3]thiazol-2-yl}-N′-methylurea]", "EC150 (the concentration of the compound showing a relative enzyme activity of 150%)": 2.1},
      {"smiles": "CC(C)OC(=O)N1CC2Cc3nc(NC(=O)NC4CCOCC4)sc3C(C1)N2c1nc(-c2ccc(F)cc2)no1", "note": "(stereo not shown) [Example 143, Propan-2-yl-10-[3-(4-fluorophenyl)-1,2,4-oxadiazol-5-yl]-2-{[(oxan-4-yl)carbamoyl]amino}-4,7,8,9-tetrahydro-4,8-epimino[1,3]thiazolo[5,4-d]azocine-6(5H)-carboxylate]", "EC150 (the concentration of the compound showing a relative enzyme activity of 150%)": 0.62},
      {"smiles": "O=C(Nc1nc2c(s1)[C@@H]1COC[C@H](C2)N1c1cc(C2CCC(F)(F)CC2)on1)N[C@@H]1CCOC1", "note": "[Example 157, N-{(4S,8S)-10-[5-(4,4-difluorocyclohexyl)-1,2-oxazol-3-yl]-4,7,8,9-tetrahydro-5H-4,8-epiminooxocino[5,4-d][1,3]thiazol-2-yl}-N′-[(3R)-oxolan-3-yl]urea]", "EC150 (the concentration of the compound showing a relative enzyme activity of 150%)": 4.6},
      {"smiles": "CNC(=O)Nc1nc2c(s1)C1CN(C(=O)OC)CC(C2)N1c1nc(C23CCC(F)(CC2)C3)no1", "note": "(stereo not shown) [Example 133, Methyl 10-[3-(4-fluorobicyclo[2.2.1]heptan-1-yl)-1,2,4-oxadiazol-5-yl]-2-[(methylcarbamoyl)amino]-4,7,8,9-tetrahydro-4,8-epimino[1,3]thiazolo[5,4-d]azocin-6(5H)-carboxylate]", "EC150 (the concentration of the compound showing a relative enzyme activity of 150%)": 1.4},
      {"smiles": "CNC(=O)Nc1nc2c(s1)[C@H]1CN(C(=O)C(C)C)C[C@@H](C2)N1c1nc(-c2ccc(F)cc2)no1", "note": "[Example 125, N-[(4R,8R)-10-[3-(4-fluorophenyl)-1,2,4-oxadiazol-5-yl]-6-(2-methylpropanoyl)-4,5,6,7,8,9-hexahydro-4,8-epimino[1,3]thiazolo[5,4-d]azocin-2-yl]-N′-methylurea]", "EC150 (the concentration of the compound showing a relative enzyme activity of 150%)": 2.4},
      {"smiles": "CNC(=O)Nc1nc2c(s1)[C@H]1CN(CCO)C[C@@H](C2)N1c1nc(-c2ccc(F)cc2)no1", "note": "[Example 127, N-[(4R,8R)-10-[3-(4-fluorophenyl)-1,2,4-oxadiazol-5-yl]-6-(2-hydroxyethyl)-4,5,6,7,8,9-hexahydro-4,8-epimino[1,3]thiazolo[5,4-d]azocin-2-yl]-N′-methylurea]", "EC150 (the concentration of the compound showing a relative enzyme activity of 150%)": 2.1},
      {"smiles": "C[C@H](CO)NC(=O)Nc1nc2c(s1)[C@@H]1COC[C@H](C2)N1c1nc2cc(Cl)ccc2o1", "note": "[Example 59, N-[(4S,8S)-10-(5-chloro-1,3-benzoxazol-2-yl)-4,7,8,9-tetrahydro-5H-4,8-epiminooxocino[5,4-d][1,3]thiazol-2-yl]-N′-[(2R)-1-hydroxypropan-2-yl]urea]", "EC150 (the concentration of the compound showing a relative enzyme activity of 150%)": 0.44},
      {"smiles": "CCc1cccc(-c2nnc(N3[C@@H]4COC[C@H]3c3sc(NC(=O)NC)nc3C4)o2)c1", "note": "[Example 118, N-{(4S,8S)-10-[5-(3-ethylphenyl)-1,3,4-oxadiazol-2-yl]-4,7,8,9-tetrahydro-5H-4,8-epiminooxocino[5,4-d][1,3]thiazol-2-yl}-N′-methylurea]", "EC150 (the concentration of the compound showing a relative enzyme activity of 150%)": 1.8},
      {"smiles": "O=C(Nc1nc2c(s1)[C@@H]1COC[C@H](C2)N1c1nc(C2(C(F)(F)F)CC2)no1)N[C@@H]1CCOC1", "note": "[Example 37, N-[(3R)-oxolan-3-yl]-N′-[(4S,8S)-10-{3-[1-(trifluoromethyl)cyclopropyl]-1,2,4-oxadiazol-5-yl}-4,7,8,9-tetrahydro-5H-4,8-epiminooxocino[5,4-d][1,3]thiazol-2-yl]urea]", "EC150 (the concentration of the compound showing a relative enzyme activity of 150%)": 4.6},
      {"smiles": "O=C(Nc1nc2c(s1)CN(c1nc(C3CCC(F)(F)CC3)no1)CC2)N[C@H]1CC[C@H](O)CC1", "note": "[Example 26, N-{5-[3-(4,4-difluorocyclohexyl)-1,2,4-oxadiazol-5-yl]-4,5,6,7-tetrahydro[1,3]thiazolo[5,4-c]pyridin-2-yl}-N′-[(1r,4r)-4-hydroxycyclohexyl]urea]", "EC150 (the concentration of the compound showing a relative enzyme activity of 150%)": 0.81},
      {"smiles": "C[C@H]1NC(=O)N(c2nc3c(s2)[C@@H]2COC[C@H](C3)N2c2nc(-c3ccc(F)cc3)no2)C1=O", "note": "[Example 20, (5R)-3-{(4S,8S)-10-[3-(4-fluorophenyl)-1,2,4-oxadiazol-5-yl]-4,7,8,9-tetrahydro-5H-4,8-epiminooxocino[5,4-d][1,3]thiazol-2-yl}-5-methylimidazolidine-2,4-dione]", "EC150 (the concentration of the compound showing a relative enzyme activity of 150%)": 2.6}
    ]}
  ]
}
